One assay deals with T1, p53 Y220C mutant (Homo sapiens, UniProt P04637, Y220C).
T1 construct: gene TP53; Biotinylated DBD of p53-Y220C
The experiment in a line: SPR (Biacore 8K); also thermal shift and TR-FRET DNA binding.

The test system of another assay is A-431. In words: cells. More on the design: 5-day MTT proliferation assay, absorbance 570 nm, per cent viability of untreated cells, IC50 from XLfit. The settings on record: Homo sapiens, A-431, 120 h; 5-day MTT proliferation; read-out: PC14586 MTT IC50. As to the method: (§1) The antiproliferative activity of compounds was evaluated using the MTT (Sigma-Aldrich, Cat. # M5655-1G) assay in a 96-well plate format. Cells were seeded at an appropriate density depending on the growth rate in 96-well microtiter plates, and compounds were tested at eight concentrations with 2-fold serial dilutions. Antiproliferative activity was assessed 5 days later by the conversion of the tetrazolium dye MTT (1 mg/mL) into insoluble formazan by viable cells, which was dissolved in ethanol and measured by a microplate reader for absorbance with a wavelength of 570 nm and a reference wavelength of 650 nm. The results were presented as a percentage of the viability of untreated cells (control). The IC50 was determined from the regression of a plot of the logarithm of concentration versus percentage of viability by XLfit IDBS. The data presented thus far indicate that PC14586 is a potent and selective reactivator of p53-Y220C with strong antiproliferative effects driven by cell-cycle arrest. To further investigate the selectivity and effects on proliferation following treatment with PC14586, additional p53-Y220C, p53 hotspot mutant, and p53-WT cell lines were assessed in a 5-day 3-[4,5-dimethylthiazol-2-yl]-2,5-diphenyl tetrazolium bromide (MTT) assay. […] The less sensitive p53-Y220C cell lines, TE-8 and HCC1419, have an additional p53 mutation. In the case of TE-8, the secondary mutation, M237I, is in the DBD of p53 and has been reported to interfere with p53 DNA binding ([36]). The spectrum of sensitivity to our compounds in cell lines with additional p53 mutations may indicate that monitoring second-site mutations and patient responses could yield mechanistic insights and potential biomarkers.

The next assay has as its system BxPC-3. In words: cells. Details: 5-day MTT proliferation assay, absorbance 570 nm, per cent viability of untreated cells, IC50 from XLfit. The conditions noted are these: Homo sapiens, BXPC-3, 120 h; 5-day MTT proliferation; read-out: PC14586 MTT IC50. On the procedure:
as §1

For another assay, the system named is C-33A. The experiment in a line: cells. More on the design: 5-day MTT proliferation assay, absorbance 570 nm, per cent viability of untreated cells, IC50 from XLfit. The conditions noted are these: Homo sapiens, C-33-A, 120 h; 5-day MTT proliferation; read-out: PC14586 MTT IC50. On the procedure:
as §1

A further assay has as its system EFE-184. In words: cells. More on the design: 5-day MTT proliferation assay, absorbance 570 nm, per cent viability of untreated cells, IC50 from XLfit. The settings on record: Homo sapiens, EFE-184, 120 h; 5-day MTT proliferation; read-out: PC14586 MTT IC50. As to the method: as §1
The test system of a further assay is HCC1419#. In words: cells. The settings on record: Homo sapiens, HCC1419, 120 h; 5-day MTT proliferation; read-out: PC14586 MTT IC50. Details: 5-day MTT proliferation assay, absorbance 570 nm, per cent viability of untreated cells, IC50 from XLfit. On the procedure:
as §1

For a further assay, the system named is HCC2935. The experiment in a line: cells. The conditions noted are these: Homo sapiens, HCC2935, 120 h; 5-day MTT proliferation; read-out: PC14586 MTT IC50. More on the design: 5-day MTT proliferation assay, absorbance 570 nm, per cent viability of untreated cells, IC50 from XLfit. On the procedure:
as §1

The subject of the next assay is HCT 116. The experiment in a line: cells. Details: 5-day MTT proliferation assay, absorbance 570 nm, per cent viability of untreated cells, IC50 from XLfit. The settings on record: Homo sapiens, HCT-116, 120 h; 5-day MTT proliferation; read-out: PC14586 MTT IC50. On the procedure:
as §1

The subject of the next assay is HuH-7. The experiment in a line: cells. Details: 5-day MTT proliferation assay, absorbance 570 nm, per cent viability of untreated cells, IC50 from XLfit. The conditions noted are these: Homo sapiens, Huh-7, 120 h; 5-day MTT proliferation; read-out: PC14586 MTT IC50. On the procedure:
as §1

The next assay relates to KON. The experiment in a line: cells. Details: 5-day MTT proliferation assay, absorbance 570 nm, per cent viability of untreated cells, IC50 from XLfit. The conditions noted are these: 120 h; 5-day MTT proliferation; read-out: PC14586 MTT IC50. On the procedure:
as §1

The subject of the next assay is MFE-296#. The experiment in a line: cells. More on the design: 5-day MTT proliferation assay, absorbance 570 nm, per cent viability of untreated cells, IC50 from XLfit. The conditions noted are these: Homo sapiens, MFE-296, 120 h; 5-day MTT proliferation; read-out: PC14586 MTT IC50. As to the method: as §1
The next assay relates to NUGC-3_KO. The experiment in a line: cells. Details: 5-day MTT proliferation assay, absorbance 570 nm, per cent viability of untreated cells, IC50 from XLfit. The conditions noted are these: 120 h; 5-day MTT proliferation; read-out: PC14586 MTT IC50. On the procedure:
as §1

In a further assay the test system is NUGC-3. The experiment in a line: cells. Details: 5-day MTT proliferation assay, absorbance 570 nm, per cent viability of untreated cells, IC50 from XLfit. The settings on record: Homo sapiens, NUGC-3, 120 h; 5-day MTT proliferation; read-out: PC14586 MTT IC50. On the procedure:
as §1

The subject of another assay is SF-295. The experiment in a line: cells. The settings on record: Homo sapiens, SF-295, 120 h; 5-day MTT proliferation; read-out: PC14586 MTT IC50. Details: 5-day MTT proliferation assay, absorbance 570 nm, per cent viability of untreated cells, IC50 from XLfit. As to the method:
as §1

The test system of another assay is SJSA-1. The experiment in a line: cells. More on the design: 5-day MTT proliferation assay, absorbance 570 nm, per cent viability of untreated cells, IC50 from XLfit. The settings on record: Homo sapiens, SJSA-1, 120 h; 5-day MTT proliferation; read-out: PC14586 MTT IC50. On the procedure:
as §1

In another assay the test system is SNU-NCC-19. In words: cells. The settings on record: 120 h; 5-day MTT proliferation; read-out: PC14586 MTT IC50. Details: 5-day MTT proliferation assay, absorbance 570 nm, per cent viability of untreated cells, IC50 from XLfit. On the procedure: as §1
For a further assay, the system named is SU.86.86. In words: cells. Details: 5-day MTT proliferation assay, absorbance 570 nm, per cent viability of untreated cells, IC50 from XLfit. The conditions noted are these: Homo sapiens, SU.86.86, 120 h; 5-day MTT proliferation; read-out: PC14586 MTT IC50. As to the method:
as §1

The test system of a further assay is T3M-4. The experiment in a line: cells. Details: 5-day MTT proliferation assay, absorbance 570 nm, per cent viability of untreated cells, IC50 from XLfit. The settings on record: T3M4, 120 h; 5-day MTT proliferation; read-out: PC14586 MTT IC50. As to the method: as §1
A further assay concerns TE-8#. In words: cells. More on the design: 5-day MTT proliferation assay, absorbance 570 nm, per cent viability of untreated cells, IC50 from XLfit. The conditions noted are these: Homo sapiens, TE-8, 120 h; 5-day MTT proliferation; read-out: PC14586 MTT IC50. On the procedure: as §1
Another assay has as its system TOV-112D. In words: cells. More on the design: 5-day MTT proliferation assay, absorbance 570 nm, per cent viability of untreated cells, IC50 from XLfit. The settings on record: Homo sapiens, TOV112D, 120 h; 5-day MTT proliferation; read-out: PC14586 MTT IC50. As to the method:
as §1

Structures are written as SMILES.

T1 sequence (P04637 94-312 limits assumed, stated change not applied): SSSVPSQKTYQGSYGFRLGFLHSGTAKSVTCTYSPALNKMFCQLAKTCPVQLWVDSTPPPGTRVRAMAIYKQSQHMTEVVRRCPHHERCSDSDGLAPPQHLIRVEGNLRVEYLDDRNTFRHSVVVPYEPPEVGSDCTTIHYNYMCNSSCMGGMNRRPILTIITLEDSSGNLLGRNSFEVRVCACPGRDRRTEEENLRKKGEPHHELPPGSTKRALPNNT

In the case of `CNC(=O)c1ccc(NCC#Cc2cc3c(N[C@@H]4CCN(C)C[C@@H]4F)cccc3n2CC(F)(F)F)c(OC)c1` [PC14586, rezatapopt], the Kd result at p53 Y220C mutant was “PC14374 and PC14586 both have low nmol/L SC150 and SPR Kd”. For the same compound, the concentration for half-maximal inhibition (IC50) in the assay on A-431 amounted to 13.8 µM; in the assay with BxPC-3, 0.33 µM; in the assay on C-33A, 18.5 µM; with EFE-184, 12.5 µM; in the assay with HCC1419#, 4.87 µM; in the assay with HCC2935, 0.4 µM. The half-maximal inhibitory concentration (IC50) in the assay with HCT 116 is 19.3 µM; in the assay with HuH-7, 0.49 µM; in the assay with KON it was 1.05 µM; in the assay with MFE-296#, 0.5 µM; with NUGC-3_KO, 15.5 µM; in the assay with NUGC-3, 0.59 µM. Moreover, the 50% inhibitory concentration (IC50) in the assay with SF-295 is 11.2 µM; in the assay on SJSA-1, above 20 µM; with SNU-NCC-19 it was 0.23 µM; in the assay on SU.86.86 it was 16.8 µM; with T3M-4, 1.81 µM; in the assay on TE-8# it was 8.66 µM. Moreover, the half-inhibitory concentration (IC50) with TOV-112D worked out at 13 µM.

Source of the values: PMC12130801, “Restoration of the Tumor Suppressor Function of Y220C-Mutant p53 by Rezatapopt, a Small-Molecule Reactivator” (Cancer Discovery, 2025).
